Experimental data taken from US20150192589A1, “METHOD USING FLUORESCENT TURN-ON PROBES FOR CELL-SPECIFIC DETECTION” (Agency for Science, Technology and Research, priority 2014, published 2015).

Tests used:
[1] = system: β-galactosidase; assay: Hydrolysis of probe by β-galactosidase (fluorescence turn-on); assay type: biochemical; details: KH2PO4 buffer pH 4.5, 30° C., excitation 365 nm, emission 542 nm
Experimental: Excited at 365 nm. Fluorescence intensity was measured at 542 nm.
After reaction of the probe with β-galactosidase, compound 9 is obtained.

[2] = system: esterase; assay: Effect of esterase inhibitor on esterase activity (Lyso-1 fluorescence readout); assay type: biochemical; details: Lyso-1 10 μM, esterase 0.50 U mL^−1
Experimental: (§1) For example, the addition of 0.1 mM AEBSF causes a fluorescence decrease in 10% at 532 nm compared with that without AEBSF. The higher concentrations of AEBSF such as 0.4 and 1.0 mM lead to larger fluorescence decrease of 40% and 65%, respectively. […] Thus, the probe Lyso-1 has a use to screen inhibitors of esterase.

[3] = system: esterase in MCF-7 cells; assay: Esterase activity in living cells by Lyso-1 fluorescence imaging after inhibitor pretreatment; assay type: cell-based; details: MCF-7 cells pretreated with 0.4 mM
Experimental: as §1

[4] = system: esterase; assay: Fluorescence response of Lyso-1 upon incubation with esterase; assay type: biochemical
Experimental: The measurements were performed in 10 mM PBS (pH 7.4) with λex/em=356/532 nm.
For esterase at 0.50 U mL^−1, the fluorescence increase could reach a plateau in 15 min, which is sigmoidal in shape due to the two-stepwise sequential hydrolysis of Lyso-1 to 2. The fluorescence could only be fully generated after the two-step reaction completed and formation of intramolecular hydrogen bonds. […] The detection limit (3 S/m, in which S is the standard deviation of blank measurements, and m is the slope of the linear equation) is determined to be 2.4×10-3 U mL^−1.
(§2) The UV-vis absorption spectra were obtained using UV-vis spectrometer (Shimadzu, UV-1700, Japan). PL measurements were carried out on a Perkin-Elmer LS-55 equipped with a xenon lamp excitation source and a Hamamatsu (Japan) 928 PMT, using 90° angle detection for solution samples. The cells were imaged by fluorescence microscope (Nikon Al Confocal microscope). The time-dependence fluorescence scans of Lyso-1 were conducted with microplate reader (TECAN). ^1H and ^13C NMR spectra were measured on a Bruker ARX 400 NMR spectrometer. The molecular mass was acquired using ion trap-time-of-flight mass spectrometry (MS-IT-TOF) (Shimadzu).

[5] = system: esterase; assay: Selectivity of Lyso-1 fluorescence response, esterase versus interference substances; assay type: biochemical; details: Lyso-1 10 μM; esterase 0.50 U mL^−1 vs MgCl2, CaCl2, vitamin C, H2O2, BO3−, lysozyme, cathepsin B; PBS pH 7.4, 37° C.
[6] = system: lysosomes of MCF-7 cells; assay: In situ imaging of lysosomal esterase / colocalization with LysoTracker Red; assay type: cell-based
Experimental: FIGS. 9A-9H show the colocalization imaging of MCF-7 cells stained with 1.0 μM Lyso-1 and 50 nM LysoTracker®-red for 30 min at 37° C. (FIG. 9A and FIG. 9E) Bright-field image. (FIG. 9B and FIG. 9F) Confocal image from Lyso-1 on channel 1 (λex=405 nm, λem=515-560 nm). (FIG. 9C and FIG. 9G) Confocal image from LysoTracker® Red on channel 2 (λex=559 nm, λem=585-610 nm). (FIG. 9D and FIG. 9H) Merged image of channels 1 and 2. Scale bar=20 μm.
A discrete labeling pattern that matched the distribution of lysosomes was obtained using Lyso-1 (FIG. 9a-d). […] To verify that the probes can selectively target lysosomes, the probe 6 without of lysosome targeting morpholines was also tested for cell imaging as a comparison. […] These experiments clearly verified that Lyso-1 can selectively target lysosome.
MCF-7 cells were seeded at a density of 2×10^4/well in the chamber (LAB-TEK, Chambered Coverglass System) and grown for 18 h at 37° C. in a humidified 5% CO2 incubator. The cells were washed twice with 1×PBS buffer and 0.3 mL fresh serum-free medium containing 1.0 μM Lyso-1 solution was then added to the chamber.
For co-staining between Lyso-1 and LysoTracker® Red, the MCF-7 cells were first incubated with 1.0 μM Lyso-1 solution for 2 h, and then the cells were rinsed and incubated in the medium containing 100 nM Lyso-tracker Red for 1 h.
Lyso-1 was excited at 405 nm (1% laser power) and the fluorescence was collected at 515-560 nm; LysoTracker® Red was excited at 560 nm (18% laser power) and fluorescence was collected at 581-688 nm.

[7] = system: lysosomal esterase in MCF-7 cells; assay: Real-time fluorescence imaging of lysosomal esterase activity; assay type: cell-based
Experimental: As the incubation time elapses, the fluorescence intensity increases quickly which reaches a maximum at 8 min. The real-time fluorescence images shown in FIG. 12 indicate that the probe is non-fluorescent in the cell culture media.
[…] The intensity images of Lyso-1 were recorded with the emission in the range of 515-560 nm. Excitation wavelength: 405 nm.

[8] = system: MCF-7 breast cancer cells; assay: Cell viability by MTT assay; assay type: cell-based; details: 1, 2, 4, 8, or 16 μM for 24 h
Experimental: The samples were incubated with 1, 2, 4, 8, or 16 μM Lyso-1 for 24 h, and the cell viabilities are close to 100% under the testing conditions, indicative of low cytotoxicity of the probe.
MCF-7 cancer cells were seeded in 96-well plates at a density of 4×10^4 cells/mL. After 24 h incubation, the cells were exposed to a series of doses of the probe Lyso-1 at 37° C. After the designated time intervals, the sample wells were washed twice with 1×PBS buffer and freshly prepared MTT solution (0.5 mg/mL, 100 μL) in culture medium was added into each sample well. The MTT medium solution was carefully removed after 3 h incubation in the incubator for the sample wells, whereas the control wells without addition of MTT solution were washed twice with 1×PBS buffer. DMSO (100 μL) was then added into each well and the plate was gently shaken for 10 min at room temperature to dissolve all the precipitates formed. The absorbance of individual wells at 570 nm was then monitored by the microplate Reader. The absorbance of MTT in the sample well was determined by the differentiation between the absorbance of the sample well and that of the respective control well. Cell viability was expressed by the ratio of the absorbance of MTT in the sample wells to that of the cells incubated with culture medium only.

[9] = Photostability by continuous confocal scanning of stained cells; assay type: physicochemical; details: approximately 8 min continuous confocal scanning, stained MCF-7 cells; Lyso-1 1 μM, LysoTracker Red 50 nM
Experimental: FIGS. 10A-10E show (FIG. 10E) Signal loss (%) of fluorescent emission of Lyso-1 (1 μM) and LysoTracker® Red (50 nM) with increasing time. Excitation wavelength: 405 nm (for Lyso-1) and 560 nm (for LysoTracker® Red); emission filter: 515-560 nm (for Lyso-1) and 581-688 nm (for LysoTracker® Red); (FIGS. 10A-10D) fluorescent images of living MCF-7 cells stained with Lyso-1(1 μM) and LysoTracker® Red (50 nM) at 0 and 5 min.
It has been shown that the signal loss of Lyso-1 is less than 20% in approximately 8 min. In contrast, LysoTracker® Red lost almost approximately 70% of its fluorescence signal.
For Photostability study, MCF-7 cells were stained with 1.0 μM Lyso-1 and LysoTracker® Red for 1 h at 37° C. under 5% CO2. The changes of fluorescence intensity with scan time were determined by CLSM (Zeiss LSM 410, Jena, Germany).
Excitation wavelength: 405 nm (for Lyso-1, 1% laser power) and 560 nm (for LysoTracker® Red, 18% laser power); emission filter: 515-560 nm (for Lyso-1) and 581-688 nm (for LysoTracker® Red). The data were obtained from replicate experiments (n=3).

[10] = system: mitochondria; assay: Mitochondria imaging; assay type: cell-based
Experimental: FIGS. 30A-30C show Colocalization imaging of Hela cells stained with 5.0 μM MitoGreen-2 and 50 nM MitoTracker®-red.
MitoGreen-1 and MitoGreen-2 can be easily modified by adding further reactive groups to detect certain enzymes or bioactive molecules.

[11] = Photoluminescence / AIE properties in solvent-water mixtures; assay type: physicochemical
Source text: At ˜532 nm, there is almost no fluorescence for Lyso-1, whereas a strong emission with a 200-fold enhancement is observed for 2 from the keto tautomer ([…]). The weak emission at a short wavelength (λmax=˜441 nm) is from the enol tautomer of 2 (FIG. 1). It is noted that there is almost no overlap between the absorption and emission spectrum for salicyladazine dye 2, which is highly desirable for imaging applications.
With gradual addition of water into THF from fw=0 to 80 vol %, the emission intensity keeps slow increasing. […] At fw=99 vol %, a 14-fold enhancement of emission has been observed as compared to that in THF, showing an obvious AIE effect.
as §2

OCC1O[C@@H](Oc2ccccc2/C=N/N=C/c2ccccc2OC2O[C@H](CO)[C@H](O)[C@H](O)[C@H]2O)C(O)C(O)C1O (stereo in doubt) [β-gal-1, (2S,3S,4R,5S,6S)-2-(hydroxymethyl)-6-(2-((E)-((E)-(2-(((2R,3R,4S,5R,6R)-3,4,5-trihydroxy-6-(hydroxymethyl)tetrahydro-2H-pyran-2-yl)oxy)benzylidene)hydrazono)methyl)phenoxy)tetrahydro-2H-pyran-3,4,5-triol]
fluorescence upon reaction with β-galactosidase [1]: leads to fluorescence

NCCc1ccc(S(=O)(=O)F)cc1 [AEBSF, 4-(2-aminoethyl)benzenesulfonyl fluoride]
fluorescence decrease at 532 nm compared with that without AEBSF ([2]; 0.1 mM AEBSF): 10% | fluorescence decrease at 532 nm compared with that without AEBSF ([2]; 0.4 mM AEBSF): 40% | fluorescence decrease at 532 nm compared with that without AEBSF ([2]; 1.0 mM AEBSF): 65% | Lyso-1 fluorescence in pretreated cells [3]: obviously decreased fluorescence

CC(=O)Oc1cc(OCCCCN2CCOCC2)ccc1/C=N/N=C/c1ccc(OCCCCN2CCOCC2)cc1OC(C)=O [Lyso-1, ((1E,1′E)-hydrazine-1,2-diylidenebis(methanylylidene))bis(3-(4-morpholinobutoxy)-6,1-phenylene) diacetate]
fluorescence change without esterase (stability of the probe) ([4]; control without esterase, same period of time, PBS pH 7.4): hardly changes | time for fluorescence increase to reach a plateau ([4]; esterase 0.50 U mL^−1, Lyso-1 10 μM, 10 mM PBS pH 7.4): 15 min | fluorescence induced by esterase relative to interferences (times brighter) [5]: 70-200 times | overlap between fluorescence images of probe and LysoTracker Red ([6]; MCF-7 cells, 1.0 μM probe, no washing): excellent overlap | incubation time at which fluorescence intensity reaches a maximum ([7]; 1.0 μM, room temperature): 8 min | cell viability [8]: ~100% | signal loss of fluorescent emission [9]: less than 20%

CN(C)CCNC(=O)CCc1ccc2n1[B-](F)(F)[N+]1=C(c3ccc[nH]3)C=CC1=C2 [LysoTracker® Red, reference compound]
signal loss of fluorescent emission [9]: approximately 70%

Oc1cc(OCCCCCC[P+](c2ccccc2)(c2ccccc2)c2ccccc2)ccc1/C=N/N=C/c1ccc(OCCCCCC[P+](c2ccccc2)(c2ccccc2)c2ccccc2)cc1O.[Br-].[Br-] [MitoGreen-1, (((((1E,1′E)-hydrazine-1,2-diylidenebis(methanylylidene))bis(3-hydroxy-4,1-phenylene))bis(oxy))bis(hexane-6,1-diyl))bis(triphenylphosphonium) bromide]
binding to mitochondria [10]: bind well to mitochondria

Oc1cc(OCCCCCC[n+]2ccccc2)ccc1/C=N/N=C/c1ccc(OCCCCCC[n+]2ccccc2)cc1O.[Br-].[Br-] [MitoGreen-2, 1,1′-(((((1E,1′E)-hydrazine-1,2-diylidenebis(methanylylidene))bis(3-hydroxy-4,1-phenylene))bis(oxy))bis(hexane-6,1-diyl))bis(pyridin-1-ium) bromide]
binding to mitochondria [10]: bind well to mitochondria

Oc1cc(OCCCCN2CCOCC2)ccc1/C=N/N=C/c1ccc(OCCCCN2CCOCC2)cc1O [compound 2, 6,6′-((1E,1′E)-hydrazine-1,2-diylidenebis(methanylylidene))-bis(3-(4-morpholinobutoxy)-phenol)]
quantum yield of keto tautomer emission (printed "0=") ([11]; 10 μM in DMSO/water (1:99 v/v), ~532 nm): 9.6% | emission enhancement at ~532 nm compared with Lyso-1 ([11]; 10 μM in DMSO/water (1:99 v/v), λex=356 nm, keto tautomer emission): 200 fold | enhancement of emission at fw=99 vol % compared to that in THF (AIE effect) ([11]; THF/water, 10 μM, excitation 356 nm): 14 fold

CC(=O)Oc1cc(OCCCCBr)ccc1/C=N/N=C/c1ccc(OCCCCBr)cc1OC(C)=O [compound 6, ((1E,1′E)-hydrazine-1,2-diylidenebis(methanylylidene))bis(3-(4-bromobutoxy)-6,1-phenylene) diacetate]
fluorescence of cells ([6]; MCF-7 cells incubated with 1.0 μM for 2 h): Very weak fluorescence | staining pattern of cells ([6]; MCF-7 cells incubated with 5.0 μM): non-specific staining of the entire cell | time after which probe turns on in the entire cells ([7]; 5 μM): 2 h
